Key:
Type in all cases: cell-based, Human
[1] = system: BCL2 gene; test: RT-qPCR BCL2 gene expression in BEAS-2B; settings: 24 h; for fold induction at 100 µM: Homo sapiens, reference gene RPL41, vs untreated control, read-out: Relative level of expression, BCL2 gene
Method: (§1) Real-time polymerase chain reaction was performed for the reference gene RPL41 (ribosomal protein L41) and the tested genes: BCL2, AIFM2, MDM2, IL6 and IL8. […] The BEAS-2B line was selected for the experiment. The expression level of selected genes was measured after 24 h of incubation with the tested substances MJ1–MJ20 at a concentration of 100 μM (Table 3).
The RT-qPCR experiment was performed for the BEAS-2B cell line. In this experiment, the BCL2 gene was studied, and RPL41 was used as the reference gene (Figure 14).
(§2) Gene expression studies used quantitative RT-qPCR to assess the effect of the tested quinobenzothiazines (MJ1–MJ20) on the expression of apoptosis-related genes (BCL2, AIFM2, MDM2) and pro-inflammatory cytokines (IL6, IL8) (Table 4).
(§3) BEAS-2B and HCT116 cells were seeded in 6-well plates at 2 × 10^5 cells per well and cultured in RPMI-1640 (BEAS-2B) or DMEM (HCT116) medium supplemented with 10% FBS and 1% penicillin/streptomycin at 37 °C, 5% CO2 and 95% humidity. After 24 h of incubation, the tested compounds were added at a concentration of 100 µM. After 24 h, the medium was removed from the cells, washed with PBS solution, 0.5 mL of trypsin was added per well and after 5 min it was neutralized with medium. The obtained cell suspension was centrifuged for 3 min at 2000 rpm, the supernatant was removed, and the obtained pellet was suspended in 400 µL of phenozol. Samples were frozen at −20 °C and stored until further experiment and RNA isolation.
(§4) Total RNA was isolated from cells using the A&A Biotechnology Total RNA Mini kit according to the manufacturer’s protocol. RNA quality and quantity were assessed using a NanoDrop 2000 spectrophotometer at 260/280 nm. Reverse transcription was performed using the protocol (EURx NG dART RT Kit) to obtain cDNA. After incubation, samples were placed in a freezer (−20 °C) and stored until further analysis.
(§5) The experiment was performed according to the protocol (Brilliant III Ultra Fast SYBR® Green QPCR Master Mix, Quick Reference Guide for the Bio-Rad CFX96 Real-Time PCR Detection System). RT-qPCR reaction was performed using specific primers for target genes (BCL2, AIFM2, MDM2, IL6, IL8). Gene expression was normalized to the expression of the reference gene RPL41. Reaction profiles and results were performed using Bio-Rad CFX Maestro 1.1 software from Bio-Rad. Analysis and calculations of the results obtained during RT-qPCR were performed using Microsoft Excel.
(§6) The results were analyzed using the R = 2^−ΔΔCt method, which allows for determining the relative level of gene expression (R) compared to the control. Each experiment was performed in three technical and biological replicates. RT-qPCR allowed for precise assessment of changes in the expression of genes related to the processes of apoptosis and inflammatory response under the influence of quinobenzothiazines, which allowed for identifying their potential mechanisms of action at the molecular level.

[2] = system: MDM2 gene; test: RT-qPCR MDM2 gene expression in BEAS-2B; settings: 24 h; for fold induction at 100 µM: Homo sapiens, reference gene RPL41, vs untreated control, read-out: Relative level of expression, MDM2 gene
Method: as §1
The RT-qPCR experiment was performed for the BEAS-2B cell line. In this experiment, the MDM2 gene was studied and RPL41 was used as reference gene (Figure 15).
as §2, §3, §4, §5, §6

[3] = system: IL6 gene; test: RT-qPCR IL6 gene expression in HCT116; settings: HCT116, 100 μM, 24 h, vs untreated control
Method: (§7) In each of the four compound groups: MJ1–MJ5, MJ6–MJ10, MJ11–MJ15, and MJ16–MJ20, one compound was selected based on the best IC50 value and a distinctive gene expression profile (BCL2, MDM2, AIFM2, IL6, IL8).
as §2
as §3, with “The obtained cell suspension was centrifuged for 3 min at 2000 rpm, the supernatant was removed, and the obtained pellet was suspended in 400 µL of phenozol. Samples were frozen at −20 °C and stored until further experiment and RNA isolation.” left out
(§8) Total RNA was isolated from cells using the A&A Biotechnology Total RNA Mini kit according to the manufacturer’s protocol. RNA quality and quantity were assessed using a NanoDrop 2000 spectrophotometer at 260/280 nm. […]
(§9) The results were analyzed using the R = 2^−ΔΔCt method, which allows for determining the relative level of gene expression (R) compared to the control. […]

[4] = system: IL8 gene; test: RT-qPCR IL8 gene expression in HCT116; settings: HCT116, 100 μM, 24 h, vs untreated control
Method: as §7, §2
as §3, with “The obtained cell suspension was centrifuged for 3 min at 2000 rpm, the supernatant was removed, and the obtained pellet was suspended in 400 µL of phenozol. Samples were frozen at −20 °C and stored until further experiment and RNA isolation.” left out
as §8, §9

[5] = system: MDM2 gene; test: RT-qPCR MDM2 gene expression in HCT116; settings: HCT116, 100 μM, 24 h, vs untreated control
Method: as §7, §2
as §3, with “The obtained cell suspension was centrifuged for 3 min at 2000 rpm, the supernatant was removed, and the obtained pellet was suspended in 400 µL of phenozol. Samples were frozen at −20 °C and stored until further experiment and RNA isolation.” left out
as §8, §9

[6] = system: AIFM2 gene; test: RT-qPCR AIFM2 gene expression in HCT116; settings: HCT116, 100 μM, 24 h, vs untreated control
Method: as §7, §2
as §3, with “The obtained cell suspension was centrifuged for 3 min at 2000 rpm, the supernatant was removed, and the obtained pellet was suspended in 400 µL of phenozol. Samples were frozen at −20 °C and stored until further experiment and RNA isolation.” left out
as §8, §9

SMILES	BCL2 expression increase ([1]; 100 μM, compared to control) [fold]	fold induction at 100 µM [1]	MDM2 expression increase ([2]; 100 μM, compared to control) [fold]	fold induction at 100 µM [2]	Relative level of expression, IL6 gene [3]	Relative level of expression, IL8 gene [4]	Relative level of expression, MDM2 gene [5]	Relative level of expression, AIFM2 gene [6]
CSc1ccc2c(c1)Sc1cc3ccccc3nc1N2Cc1cn(Cc2ccc(C#N)cc2)nn1 [MJ19, 4-((4-((9-Methylthioquino[3,2-b]benzo[1,4]thiazin-6-yl)methyl)-1H-1,2,3-triazol-1-yl)methyl)benzonitrile]	208	208	10.3	10.3				
Fc1ccc2c(c1)Sc1cc3ccccc3nc1N2Cc1cn(Cc2ccc(Cl)cc2)nn1 [MJ8, 9-Fluoro-6-[(1-(4-chlorobenzyl)-1H-1,2,3-triazol-4-yl)methyl]-quino[3,2-b]benzo-[1,4]thiazine]		10.1		8.1	6.55	6.95		
Fc1ccc(Cn2cc(CN3c4ccccc4Sc4cc5ccccc5nc43)nn2)cc1 [MJ2, 6-((1-(4-Fluorobenzyl)-1H-1,2,3-triazol-4-yl)methyl)-quino[3,2-b]benzo[1,4]thiazine]		6.5		6.3				
Clc1ccc2c(c1)Sc1cc3ccccc3nc1N2Cc1cn(CSc2ccccc2)nn1 [MJ15, 9-Chloro-6-((1-((phenylthio)methyl)-1H-1,2,3-triazol-4-yl)methyl)-quino[3,2-b]benzo[1,4]thiazine]		60.3		6.4	5.56		3.73	4.94

Reference: PMC12295927, “Design, Synthesis, and Testing of 1,2,3-Triazolo-Quinobenzothiazine Hybrids for Cytotoxic and Immunomodulatory Activity” (International Journal of Molecular Sciences, 2025)
